Where two headings read alike, the source gives them in different places.
Key:
[1] = system: BJeLR; assay: Modulatory profiling: Alamar Blue viability, lethal compound cotreated with death modulator (EC50, AUC); format: cell-based, human; parameters: AUC, modulator BJ.Gd3+ / AUC, modulator BJ.LNAME / AUC, modulator BJ.Lmin / AUC, modulator BJ.3MA / AUC, modulator BJ.ALLN / AUC, modulator BJ.Boc D / AUC, modulator BJ.CHX / AUC, modulator BJ.Co2+ / AUC, modulator BJ.Nec-1 / AUC, modulator BJ.Pepstatin / AUC, modulator BJ.TLCK / AUC, modulator BJ.atoc / AUC, modulator BJ.trolox / AUC, modulator BJ.zVAD: unit not given beside the values; conditions: BJeLR cells, modulatory profile value (AUC); for AUC, modulator BJ.3MA: lethal compound cotreated with modulator 3MA; for AUC, modulator BJ.ALLN: lethal compound cotreated with modulator ALLN; for AUC, modulator BJ.Boc D: lethal compound cotreated with modulator Boc D; for AUC, modulator BJ.CHX: lethal compound cotreated with modulator CHX; for AUC, modulator BJ.Co2+: lethal compound cotreated with modulator Co2+; for AUC, modulator BJ.DPQ: lethal compound cotreated with modulator DPQ; for AUC, modulator BJ.Gd3+: lethal compound cotreated with modulator Gd3+; for AUC, modulator BJ.LNAME: lethal compound cotreated with modulator LNAME; for AUC, modulator BJ.Lmin/NAD+: lethal compound cotreated with modulator Lmin/NAD+; for AUC, modulator BJ.Lmin: lethal compound cotreated with modulator Lmin; for AUC, modulator BJ.NAD+: lethal compound cotreated with modulator NAD+; for AUC, modulator BJ.NMMA: lethal compound cotreated with modulator NMMA; for AUC, modulator BJ.Nec-1: lethal compound cotreated with modulator Nec-1; for AUC, modulator BJ.Pepstatin: lethal compound cotreated with modulator Pepstatin; for AUC, modulator BJ.TLCK: lethal compound cotreated with modulator TLCK
[2] = system: HT-1080; assay: as above; format: cell-based; parameters: AUC, modulator HT.3MA / AUC, modulator HT.ALLN / AUC HT.ATA / AUC HT.ActD / AUC HT.BHA / AUC HT.BHT / AUC HT.BocD / AUC HT.CHX / AUC HT.Co2+ / AUC HT.DPQ / AUC HT.EGTA / AUC HT.Lmim / AUC HT.NAD+ / AUC HT.Nec-1 / AUC HT.SP600125 / AUC HT.TLCK / AUC HT.U0126: unit not given beside the values; conditions: for AUC HT.ATA: HT-1080, modulator ATA; for AUC HT.ActD: HT-1080, modulator ActD; for AUC HT.BHA: HT-1080, modulator BHA; for AUC HT.BHT: HT-1080, modulator BHT; for AUC HT.BocD: HT-1080, modulator BocD; for AUC HT.CHX: HT-1080, modulator CHX; for AUC HT.Co2+: HT-1080, modulator Co2+; for AUC HT.CspA: HT-1080, modulator CspA; for AUC HT.DPQ: HT-1080, modulator DPQ; for AUC HT.Gd3+: HT-1080, modulator Gd3+; for AUC HT.LNAME: HT-1080, modulator LNAME; for AUC HT.Lmim: HT-1080, modulator Lmim; for AUC HT.NAD+: HT-1080, modulator NAD+; for AUC HT.NMMA: HT-1080, modulator NMMA; for HT.atoc (AUC) / HT.bCarotene (AUC) / HT.deferox (AUC) / HT.digoxin (AUC) / HT.trolox (AUC) / HT.zVAD (AUC): HT-1080; for HT.atoc (AUC): modulator atoc; for HT.bCarotene (AUC): modulator bCarotene; for HT.deferox (AUC): modulator deferox; for HT.digoxin (AUC): modulator digoxin; for HT.trolox (AUC): modulator trolox; for HT.zVAD (AUC): modulator zVAD

Nc1ccccc1NC(=O)c1ccc(CNC(=O)OCc2cccnc2)cc1 [MS275]
AUC, modulator BJ.3MA [1]: −0.02606 | AUC, modulator BJ.ALLN [1]: −0.03932 | AUC, modulator BJ.Boc D [1]: 0.08944 | AUC, modulator BJ.CHX [1]: 0.2266 | AUC, modulator BJ.Co2+ [1]: 0.2326 | AUC, modulator BJ.DPQ [1]: −0.009656 | AUC, modulator BJ.Gd3+ [1]: 0.023 | AUC, modulator BJ.LNAME [1]: 0.02321 | AUC, modulator BJ.Lmin/NAD+ [1]: 0.1569 | AUC, modulator BJ.Lmin [1]: −0.001183 | AUC, modulator BJ.NAD+ [1]: 0.1269 | AUC, modulator BJ.NMMA [1]: −0.003779 | AUC, modulator BJ.Nec-1 [1]: −0.01329 | AUC, modulator BJ.Pepstatin [1]: −0.01824 | AUC, modulator BJ.TLCK [1]: 0.08474 | AUC, modulator BJ.atoc ([1]; lethal compound cotreated with modulator atoc): −0.008452 | AUC, modulator BJ.trolox ([1]; lethal compound cotreated with modulator trolox): −0.001137 | AUC, modulator BJ.zVAD ([1]; lethal compound cotreated with modulator zVAD): 0.1415 | AUC HT.EGTA [2]: −0.005811 | AUC HT.ATA [2]: 0.0212 | AUC HT.ActD [2]: −0.1982 | AUC HT.BHA [2]: −0.04868 | AUC HT.BHT [2]: −0.1794 | AUC HT.BocD [2]: 0.02448 | AUC HT.CHX [2]: −0.1189 | AUC HT.Co2+ [2]: −0.1027 | AUC HT.CspA [2]: −0.1886 | AUC HT.DPQ [2]: −0.01058 | AUC HT.Gd3+ [2]: −0.01027 | AUC HT.LNAME [2]: 0.004204 | AUC HT.Lmim [2]: −0.09728 | AUC HT.NAD+ [2]: 0.0008794 | AUC HT.NMMA [2]: −0.00333 | AUC HT.Nec-1 ([2]; HT-1080, modulator Nec-1): −0.05557 | AUC HT.Pepstatin ([2]; HT-1080, modulator Pepstatin): −0.01654 | AUC HT.SP600125 ([2]; HT-1080, modulator SP600125): −0.09903 | AUC HT.TLCK ([2]; HT-1080, modulator TLCK): −0.02404 | AUC HT.U0126 ([2]; HT-1080, modulator U0126): −0.01884 | HT.atoc (AUC) [2]: −0.01016 | HT.bCarotene (AUC) [2]: −0.03005 | HT.deferox (AUC) [2]: −0.1653 | HT.digoxin (AUC) [2]: −0.1793 | HT.trolox (AUC) [2]: −0.02599 | HT.zVAD (AUC) [2]: 0.0222 | AUC, modulator HT.3MA ([2]; HT-1080 cells, lethal compound cotreated with modulator 3MA, modulatory profile value (AUC)): −0.09204 | AUC, modulator HT.ALLN ([2]; HT-1080 cells, lethal compound cotreated with modulator ALLN, modulatory profile value (AUC)): −0.1325

C=CCC1(Cl)C(=O)C(Cl)=C(n2ccnc2)C1(OC)OC (stereo not shown) [CIL76]
AUC, modulator BJ.3MA [1]: −0.03638 | AUC, modulator BJ.ALLN [1]: −0.0536 | AUC, modulator BJ.Boc D [1]: 0.03237 | AUC, modulator BJ.CHX [1]: 0.2608 | AUC, modulator BJ.Co2+ [1]: 0.1676 | AUC, modulator BJ.DPQ [1]: 0.007351 | AUC, modulator BJ.Gd3+ [1]: 0.01565 | AUC, modulator BJ.LNAME [1]: 0.004345 | AUC, modulator BJ.Lmin/NAD+ [1]: −0.02656 | AUC, modulator BJ.Lmin [1]: −0.005829 | AUC, modulator BJ.NAD+ [1]: 0.004895 | AUC, modulator BJ.NMMA [1]: −0.01937 | AUC, modulator BJ.Nec-1 [1]: −0.0283 | AUC, modulator BJ.Pepstatin [1]: 0.0213 | AUC, modulator BJ.TLCK [1]: −0.008689 | AUC HT.ATA [2]: 0.04513 | AUC HT.ActD [2]: 0.04286 | AUC HT.BHA [2]: 0.000578 | AUC HT.BHT [2]: −0.08655 | AUC HT.BocD [2]: −0.02767 | AUC HT.CHX [2]: 0.1505 | AUC HT.Co2+ [2]: 0.1531 | AUC HT.CspA [2]: −0.005998 | AUC HT.DPQ [2]: 0.01554 | AUC HT.EGTA ([2]; HT-1080, modulator EGTA): −0.02151 | AUC HT.Gd3+ [2]: −0.0293 | AUC HT.LNAME [2]: 0.0222 | AUC HT.Lmim [2]: 0.007964 | AUC HT.NAD+ [2]: 0.00781 | AUC HT.NMMA [2]: −0.007942 | HT.atoc (AUC) [2]: 0.003265 | HT.bCarotene (AUC) [2]: −0.00713 | HT.deferox (AUC) [2]: 0.1376 | HT.digoxin (AUC) [2]: 0.01032 | HT.trolox (AUC) [2]: −0.02707 | HT.zVAD (AUC) [2]: 0.032

Reference: patent US10947188B2, “Small molecule ferroptosis inducers” (THE TRUSTEES OF COLUMBIA UNIVERSITY IN THE CITY OF NEW YORK, priority 2016, dated 2021)
